Literature values, collected in PMC11400633, “Peptides inhibiting the assembly of monomeric human L‐lactate dehydrogenase into catalytically active homotetramer decrease the synthesis of lactate in cultured cells” (Protein Science : A Publication of the Protein Society, 2024).

Tests used:
[1] = system: LDH‐5; conditions: LDH-5 exposed to pH 2.5, incubated with peptide 2 min, then pH 7.4; ref Nadal‐Bufi et al., 2021; cited from earlier work
From the text: In particular, the loss of activity related to the dissociation of tetrameric LDH‐A (Hermann et al., [1981]; Pasti et al., [2022]) prompts the search for peptides able to interfere with the quaternary structure of this enzyme. Peptides can indeed mimic a secondary structure element supposed to be a major determinant of the reciprocal interactions engaged by the subunits of an oligomeric protein (Wang et al., [2021]). Nevertheless, it should be noted that the effectivenes ... || Structurally speaking, the four subunits of LDH‐5 are arranged as a binary association of dimers, with their N‐ and C‐terminal regions reciprocally engaged in dimer‐dimer interactions (Read et al., [2001]). […] Moreov ...

[2] = system: LDH‐A; conditions: dynamic light scattering; shift from about 240 kDa; ref Jafary et al., 2019; cited from earlier work
From the text: (§1) In particular, the loss of activity related to the dissociation of tetrameric LDH‐A (Hermann et al., [1981]; Pasti et al., [2022]) prompts the search for peptides able to interfere with the quaternary structure of this enzyme. Peptides can indeed mimic a secondary structure element supposed to be a major determinant of the reciprocal interactions engaged by the subunits of an oligomeric protein (Wang et al., [2021]). Nevertheless, it should be noted that the effectivenes ...

[3] = target: dimeric LDH‐B; conditions: ref Thabault et al., 2020; read-out: K D for dimeric LDH‐B; cited from earlier work
From the text: as §1

| Substance | apparent LDH‐A molecular mass in the presence of peptide [2] | other results |
| --- | --- | --- |
| Ac-QNGISDLVK-NH2 [Peptide C1] | – | action against LDH‐A (in words) [1]: ineffective |
| IYNLLK [hexamer of the literature targeting the C‐terminal region of LDH‐A] | ca. 100 kDa | – |
| ATLKEKLI | – | Kd [3]: 1000 µM |
| KVVYNV [hexamer of the literature targeting the C‐terminal region of LDH‐A] | ca. 100 kDa | – |
